Reference: patent publication US20050120403A1, “Inhibition of generative propagation in genetically modified herbicide resistant grasses” (Advanta Seeds B. V., priority 2000, published 2005)
Marks after values point to notes of the source that are not given here.

Tests used:
[1] = system: Arabidopsis and tobacco overexpressing AtH1; conditions: exogenous application; AtH1 overexpression in dicots; cited from earlier work
[2] = system: Lolium perenne L. (perennial ryegrass) AtH1-expressing transformants; assay: Relief of delayed heading by gibberellins (spraying, Long Day conditions); format: in vivo; conditions: for Mean Heading Time: transformant (T) plants, 30 mg/L in 5% ethanol + 0.01% Tween-20, sprayed six times over two weeks, days after the first spraying; for effect on heading as compared to non-treated controls: transformant plants, gibberellin 30 mg/L spray
Excerpt: Primary transformants derived from Lolium perenne L. (perennial ryegrass) using pVDH636 were vernalized and then subjected to Long Day (LD) conditions in the greenhouse (17 hr light/7 hr dark). […] AtH1-expressing plants are generally very leafy (FIG. 10).
Four different gibberellin compounds, which differ in their florigenicity (Evans et al., 1990), were used to treat 34 clones per compound and their effect on heading time of transformants and controls was observed. Gibberellin was applied in solvent (5% ethanol supplemented with 0.01% Tween-20 surfactant) at 30 mg/L. It was applied by spraying six times with about 2-3 ml per plant over two weeks, started one week after the beginning of LD conditions. Mean heading time is shown in days after the first spraying. Non-transformant controls were treated with the solvent only.
Transformant (T) and non-transformant (NT) control plants (Table 5) were treated with the indicated gibberellin. […] Variation between transformants for their sensitivity to gibberellins could be great.

| Molecule | reversal of inhibited flowering phenotype [1] | Mean Heading Time [2] | effect on heading as compared to non-treated controls [2] |
| --- | --- | --- | --- |
| C=C1C[C@]23C[C@@]1(O)CC[C@H]2[C@@]12C=C[C@H](O)[C@@](C)(C(=O)O1)[C@H]2[C@@H]3C(=O)O [GA3, gibberellic acid] | can be reversed | 34.1 ^ab days |  |
| C=C1C[C@]23C[C@@]1(O)CC[C@H]2[C@@]12CCC[C@@](C)(C(=O)O1)[C@H]2[C@@H]3C(=O)O [GA20] |  | 37.8 ^b days | somewhat delayed heading |
| C=C1C[C@]23C[C@@]1(O)CC[C@H]2[C@@]12CC=C[C@@](C)(C(=O)O1)[C@H]2[C@@H]3C(=O)O [GA5] |  | 33.5 ^a days | significantly stimulated heading |
| 16,17-dihydro-GA5 [diHGA5] |  | 34.2 ^ab days |  |
